Molecules are shown by their SMILES.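 How tested: cells in 96-well plates exposed to compound for 48 hours at five concentrations. The concentration for 50% growth inhibition is given as GI50.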 The source made the active and inactive calls. Rule as the data show it: active = GI50 up to about 1.1 µM and inactive = higher.

These results are taken from ChEMBL document CHEMBL1201862, “PubChem BioAssay data set” (2004).

Some test systems named below: HOP-92; RXF 393; SK-OV-3; A498; NCI-H23; SF-539; DU-145; Hs-578T; NCI-H522; OVCAR-3; NCI-H226; HCT-116; HT-29; UACC-257; HCT-15; MDA-MB-231; ACHN; OVCAR-5; MDA-N; MOLT-4.
Holding throughout (assay): NCI anticancer screen, dose series, 48 h

Consider `O=C(O)C1C(C(=O)O)C2C(=O)C=CC1N2Cc1ccccc1` (stereo not given), for which the GI50 was 9.55 µM (inactive) in the experiment on HOP-92; 2.72 µM (inactive) with RXF 393; 5.35 µM (inactive) with SK-OV-3; 20.3 µM (inactive) with A498; 2.27 µM (inactive) in the experiment on NCI-H23; 2.8 µM (inactive) in the experiment on SF-539. Further, the GI50 in the experiment with DU-145 is 1.99 µM (inactive); with Hs-578T, 2.82 µM (inactive); in the experiment on NCI-H522 it was 1.87 µM (inactive); in the experiment with OVCAR-3, 2.87 µM (inactive); in the experiment on NCI-H226, 16 µM (inactive); in the experiment on HCT-116, 3.68 µM (inactive). For the same compound, the GI50 in the experiment with HT-29 is 3.12 µM (inactive); with UACC-257, 2.62 µM (inactive); in the experiment with HCT-15, 2.46 µM; in the experiment on MDA-MB-231, 3.16 µM (inactive); with ACHN, 4.18 µM (inactive); in the experiment on OVCAR-5 it was 6.22 µM (inactive). Also, the GI50 is 2.56 µM (inactive) with MDA-N and 3.54 µM (inactive) in the experiment on MOLT-4.
Regarding `NC(=O)c1nnn(Cc2cc(Cl)c(C(=O)c3ccc(Cl)cc3)c(Cl)c2)c1N` [CARBOXYAMIDOTRIAZOLE], the GI50 is 32 µM (inactive) in the experiment on HOP-92; 23.7 µM (inactive) in the experiment on RXF 393; > 38.5 µM (inactive) in the experiment with SK-OV-3; 13.7 µM (inactive) in the experiment with A498; 11.8 µM (inactive) with NCI-H23; 29.2 µM (inactive) in the experiment with SF-539. The GI50 in the experiment on DU-145 is 19.2 µM (inactive); with Hs-578T, 39 µM (inactive); in the experiment with NCI-H522, 19 µM (inactive); with OVCAR-3, 12.3 µM (inactive); in the experiment on NCI-H226 it was 33 µM (inactive); in the experiment on HCT-116 it was 11.1 µM (inactive). In addition, the GI50 in the experiment on HT-29 is 22.8 µM (inactive); in the experiment on UACC-257, 7.98 µM (inactive); with HCT-15 it was 12.7 µM; in the experiment on MDA-MB-231 it was > 36.2 µM (inactive); with ACHN, 9.46 µM (inactive); in the experiment with OVCAR-5, 34.5 µM (inactive). Besides, the GI50 was 10.7 µM (inactive) in the experiment with MDA-N and 25.9 µM (inactive) with MOLT-4.
In the case of `O=C1c2ccccc2C(=O)c2c(/C=C\N3CCCCC3)ccnc21`, the GI50 with HOP-92 was 9.18 µM (inactive); with RXF 393, 8.53 µM (inactive); in the experiment with SK-OV-3, 15.7 µM (inactive); in the experiment with A498 it was 8.99 µM (inactive); in the experiment with NCI-H23, 0.644 µM (active); in the experiment with SF-539, 3.12 µM (inactive). Besides, the GI50 in the experiment on DU-145 was 1.44 µM (inactive); with Hs-578T it was 1.23 µM (inactive); in the experiment on NCI-H522 it was 2.55 µM (inactive); in the experiment on OVCAR-3, 1.75 µM (inactive); in the experiment on NCI-H226, 2.7 µM (inactive); with HCT-116, 1.06 µM (active). Further, the GI50 in the experiment on HT-29 is 5.57 µM (inactive); with UACC-257, 1.02 µM (active); with HCT-15, 0.582 µM; in the experiment with MDA-MB-231, 19.1 µM (inactive); with ACHN, 5.69 µM (inactive); in the experiment with OVCAR-5, 5.38 µM (inactive). Besides, the figures for the GI50 with MDA-N and in the experiment on MOLT-4 were 0.383 µM (active) and 6.84 µM (inactive), respectively.
With `COc1ccc(Br)c(/C=N\c2cccc3cc(OC)c(OC)cc23)c1`, the GI50 in the experiment on HOP-92 is 20.2 µM (inactive); with RXF 393, 39.1 µM (inactive); in the experiment on SK-OV-3, 55.1 µM (inactive); in the experiment with A498 it was > 78.5 µM (inactive); in the experiment on NCI-H23, 32.8 µM (inactive); in the experiment with SF-539 it was 2.64 µM (inactive). Further, the GI50 in the experiment with DU-145 is 52.1 µM (inactive); in the experiment with Hs-578T, 5.21 µM (inactive); in the experiment on NCI-H522, > 61.1 µM (inactive); in the experiment with OVCAR-3 it was 9.12 µM (inactive); in the experiment on NCI-H226, 39 µM (inactive); in the experiment on HCT-116 it was 4.35 µM (inactive). The GI50 with HT-29 was 20 µM (inactive); with UACC-257, 69.8 µM (inactive); in the experiment on HCT-15, 2.47 µM; with MDA-MB-231 it was 15.5 µM (inactive); in the experiment on ACHN, 25.5 µM (inactive); in the experiment on OVCAR-5, 72.1 µM (inactive). For the same compound, the GI50 is 3.44 µM (inactive) in the experiment on MDA-N and 4.81 µM (inactive) with MOLT-4.
Turning to `O=C(O)CSc1ccccc1C(=O)O`, the GI50 in the experiment with HOP-92, in the experiment on RXF 393, with SK-OV-3, in the experiment with A498, with NCI-H23 and with SF-539 was > 100 µM (inactive) in each case. The GI50 in the experiment on DU-145 is > 100 µM (inactive); in the experiment on Hs-578T it was > 100 µM (inactive); with NCI-H522, > 100 µM (inactive); in the experiment on OVCAR-3, > 100 µM (inactive); in the experiment with NCI-H226, 99.1 µM (inactive); in the experiment on HCT-116 it was > 100 µM (inactive). The GI50 in the experiment on HT-29 was > 100 µM (inactive); with UACC-257, 15 µM (inactive); in the experiment on HCT-15, over 100 µM; in the experiment with MDA-MB-231, > 100 µM (inactive); in the experiment with ACHN, > 100 µM (inactive); in the experiment on OVCAR-5 it was > 100 µM (inactive). The GI50 in the experiment on MDA-N and in the experiment on MOLT-4 was > 100 µM (inactive) throughout.
For the compound `NS(=O)(=O)c1ccc(/N=N/c2cnc(O)c(O)c2)cc1`, the GI50 with HOP-92 was 81.7 µM (inactive); with RXF 393, 95.3 µM (inactive); in the experiment with SK-OV-3, > 100 µM (inactive); in the experiment with A498, > 100 µM (inactive); in the experiment on NCI-H23 it was 64 µM (inactive); in the experiment with SF-539, 67.5 µM (inactive). Further, the GI50 with DU-145 is 78.2 µM (inactive); with Hs-578T, 66.1 µM (inactive); in the experiment with NCI-H522 it was 14.1 µM (inactive); with OVCAR-3 it was 28.8 µM (inactive); in the experiment on NCI-H226 it was > 100 µM (inactive); in the experiment on HCT-116 it was > 100 µM (inactive). The GI50 in the experiment with HT-29 was > 100 µM (inactive); in the experiment on UACC-257, 23 µM (inactive); in the experiment on HCT-15, over 100 µM; in the experiment with MDA-MB-231, > 100 µM (inactive); in the experiment on ACHN it was > 100 µM (inactive); in the experiment on OVCAR-5, > 100 µM (inactive). The GI50 is > 100 µM (inactive) with MDA-N and 54 µM (inactive) in the experiment with MOLT-4.
With `Cc1ccc(S(=O)(=O)NCCCCC(N)C(=O)O)cc1` (stereo not given), the GI50 in the experiment on HOP-92, in the experiment with RXF 393, in the experiment on SK-OV-3, in the experiment with A498, in the experiment with NCI-H23 and in the experiment with SF-539 was > 100 µM (inactive) in each case. The GI50 in the experiment on DU-145, in the experiment with Hs-578T, in the experiment with NCI-H522, in the experiment with OVCAR-3, with NCI-H226 and in the experiment with HCT-116 was > 100 µM (inactive) in each case. For the same compound, the GI50 was > 100 µM (inactive) with HT-29; > 100 µM (inactive) in the experiment with UACC-257; over 100 µM in the experiment on HCT-15; > 100 µM (inactive) in the experiment with MDA-MB-231; > 100 µM (inactive) in the experiment on ACHN; > 100 µM (inactive) in the experiment on OVCAR-5. Moreover, the GI50 in the experiment with MDA-N and in the experiment on MOLT-4 was > 100 µM (inactive) in each case.
In the case of `O=C(CNc1ccc(Cl)cc1)Nn1c(-c2ccccc2)nc2ccccc2c1=O`, the GI50 in the experiment with HOP-92 is 5.07 µM (inactive); in the experiment on RXF 393 it was 6.55 µM (inactive); in the experiment on SK-OV-3, 10.1 µM (inactive); with A498, 14.9 µM (inactive); with NCI-H23 it was 5.43 µM (inactive); with SF-539, 4.37 µM (inactive). The GI50 in the experiment with DU-145 was 15.1 µM (inactive); in the experiment on Hs-578T, 18.4 µM (inactive); in the experiment with NCI-H522 it was 2.99 µM (inactive); with OVCAR-3, 12.1 µM (inactive); with NCI-H226, 5.52 µM (inactive); with HCT-116 it was 1.62 µM (inactive). Further, the GI50 with HT-29 was 6.27 µM (inactive); in the experiment with UACC-257 it was 12.8 µM (inactive); in the experiment with HCT-15, 6.7 µM; in the experiment with MDA-MB-231, 4.79 µM (inactive); in the experiment on ACHN, 8.89 µM (inactive); with OVCAR-5, 14.7 µM (inactive). In addition, the GI50 in the experiment with MDA-N is 7.38 µM (inactive); with MOLT-4, 2.49 µM (inactive).
As to `NCC(=O)Nc1ccc(Cl)cc1C(=O)c1ccc[nH]1`, the GI50 with HOP-92 is 15.4 µM (inactive); in the experiment on RXF 393, > 82.2 µM (inactive); in the experiment on SK-OV-3, > 100 µM (inactive); in the experiment with A498, > 63.1 µM (inactive); with NCI-H23 it was 14.3 µM (inactive); in the experiment on SF-539, > 32.8 µM (inactive). Also, the GI50 was > 100 µM (inactive) with DU-145; > 67.5 µM (inactive) with Hs-578T; 11.5 µM (inactive) with NCI-H522; 40.9 µM (inactive) in the experiment on OVCAR-3; 46.3 µM (inactive) in the experiment on NCI-H226; 7.64 µM (inactive) with HCT-116. The GI50 with HT-29 is 25.5 µM (inactive); with UACC-257 it was > 100 µM (inactive); with HCT-15, 38.5 µM; in the experiment with MDA-MB-231, > 51.1 µM (inactive); with ACHN, > 74 µM (inactive); in the experiment on OVCAR-5, 55.6 µM (inactive). For the same compound, the GI50 with MDA-N is 23.4 µM (inactive); with MOLT-4, 35.8 µM (inactive).
Regarding `Cc1sc2[nH]c(=O)oc(=O)c2c1C`, the GI50 was > 100 µM (inactive) in the experiment on HOP-92; > 100 µM (inactive) with RXF 393; > 100 µM (inactive) in the experiment with SK-OV-3; > 100 µM (inactive) with A498; > 100 µM (inactive) in the experiment with NCI-H23; 58.3 µM (inactive) in the experiment with SF-539. Also, the GI50 in the experiment with DU-145 was > 100 µM (inactive); in the experiment with Hs-578T, 28.6 µM (inactive); in the experiment with NCI-H522 it was 26 µM (inactive); in the experiment with OVCAR-3, 55 µM (inactive); with NCI-H226, > 74.5 µM (inactive); in the experiment on HCT-116, > 100 µM (inactive). For the same compound, the GI50 was > 71.9 µM (inactive) in the experiment with HT-29; > 100 µM (inactive) in the experiment with UACC-257; over 89.9 µM in the experiment on HCT-15; > 70.8 µM (inactive) in the experiment on MDA-MB-231; 97.7 µM (inactive) in the experiment with ACHN; > 100 µM (inactive) in the experiment with OVCAR-5. Also, the GI50 in the experiment with MDA-N is 58.2 µM (inactive); in the experiment with MOLT-4, 48.5 µM (inactive).
